Reference: patent publication US10770169B2, “Method of providing a treatment to a subject based on a dynamic pathway map” (THE REGENTS OF THE UNIVERSITY OF CALIFORNIA, priority 2010, dated 2020)
Like-named read-outs stand apart in the source and are kept apart here.

Test system: panel of 55 breast cancer cell lines
Assay: Cell growth inhibition assay (Cell Titer Glo, 72 h, 9 doses; GI50, TGI, LC50)
Type: cell-based, human

Structure (SMILES): COc1ccc(C2=N[C@@H](c3ccc(Cl)cc3)[C@@H](c3ccc(Cl)cc3)N2C(=O)N2CCNC(=O)C2)c(OC(C)C)c1 [Nutlin 3a]
- GI50 (cell line 600MPE, value is the negative log10 of mol/L): 4.32
- GI50 (cell line AU565, censored GI50 values, value is the negative log10 of mol/L): 4.79
- GI50 (cell line AU565, value is the negative log10 of mol/L): 4.79
- GI50 (cell line BT20, censored GI50 values, value is the negative log10 of mol/L): 4.47
- GI50 (cell line BT20, value is the negative log10 of mol/L): 4.47
- GI50 (cell line BT474, censored GI50 values, value is the negative log10 of mol/L): 4.39
- GI50 (cell line BT474, value is the negative log10 of mol/L): 4.39
- GI50 (cell line BT483, censored GI50 values, value is the negative log10 of mol/L): 5.19
- GI50 (cell line BT483, value is the negative log10 of mol/L): 5.19
- GI50 (cell line BT549, value is the negative log10 of mol/L): 4.35
- GI50 (cell line CAMA1, value is the negative log10 of mol/L): 4.30
- GI50 (cell line HCC38, censored GI50 values, value is the negative log10 of mol/L): 4.66
- GI50 (cell line HCC38, value is the negative log10 of mol/L): 4.66
- GI50 (cell line HCC70, censored GI50 values, value is the negative log10 of mol/L): 4.73
- GI50 (cell line HCC70, value is the negative log10 of mol/L): 4.73
- GI50 (cell line HCC202, censored GI50 values, value is the negative log10 of mol/L): 5.02
- GI50 (cell line HCC202, value is the negative log10 of mol/L): 5.02
- GI50 (cell line HCC1143, censored GI50 values, value is the negative log10 of mol/L): 4.67
- GI50 (cell line HCC1143, value is the negative log10 of mol/L): 4.67
- GI50 (cell line HCC1187, censored GI50 values, value is the negative log10 of mol/L): 4.68
- GI50 (cell line HCC1187, value is the negative log10 of mol/L): 4.68
- GI50 (cell line HCC1395, censored GI50 values, value is the negative log10 of mol/L): 4.65
- GI50 (cell line HCC1395, value is the negative log10 of mol/L): 4.65
- GI50 (cell line HCC1419, censored GI50 values, value is the negative log10 of mol/L): 4.39
- GI50 (cell line HCC1419, value is the negative log10 of mol/L): 4.39
- GI50 (cell line HCC1428, censored GI50 values, value is the negative log10 of mol/L): 4.50
- GI50 (cell line HCC1428, value is the negative log10 of mol/L): 4.50
- GI50 (cell line HCC1500, censored GI50 values, value is the negative log10 of mol/L): 4.57
- GI50 (cell line HCC1500, value is the negative log10 of mol/L): 4.57
- GI50 (cell line HCC1806, value is the negative log10 of mol/L): 4.29
- GI50 (cell line HCC1937, censored GI50 values, value is the negative log10 of mol/L): 4.63
- GI50 (cell line HCC1937, value is the negative log10 of mol/L): 4.63
- GI50 (cell line HCC1954, censored GI50 values, value is the negative log10 of mol/L): 4.76
- GI50 (cell line HCC1954, value is the negative log10 of mol/L): 4.76
- GI50 (cell line HCC2185, censored GI50 values, value is the negative log10 of mol/L): 4.81
- GI50 (cell line HCC2185, value is the negative log10 of mol/L): 4.81
- GI50 (cell line HCC3153, censored GI50 values, value is the negative log10 of mol/L): 4.44
- GI50 (cell line HCC3153, value is the negative log10 of mol/L): 4.44
- GI50 (cell line LY2, censored GI50 values, value is the negative log10 of mol/L): 5.35
- GI50 (cell line LY2, value is the negative log10 of mol/L): 5.35
- GI50 (cell line MCF7, censored GI50 values, value is the negative log10 of mol/L): 5.24
- GI50 (cell line MCF7, value is the negative log10 of mol/L): 5.24
- GI50 (cell line MDAMB134V, value is the negative log10 of mol/L): 4.76
- GI50 (cell line MDAMB134VI, censored GI50 values, value is the negative log10 of mol/L): 4.76
- GI50 (cell line MDAMB157, censored GI50 values, value is the negative log10 of mol/L): 4.45
- GI50 (cell line MDAMB157, value is the negative log10 of mol/L): 4.45
- GI50 (cell line MDAMB175V, value is the negative log10 of mol/L): 5.08
- GI50 (cell line MDAMB175VII, censored GI50 values, value is the negative log10 of mol/L): 5.08
- GI50 (cell line MDAMB231, value is the negative log10 of mol/L): 4.18
- GI50 (cell line MDAMB361, value is the negative log10 of mol/L): 4.23
- GI50 (cell line MDAMB415, censored GI50 values, value is the negative log10 of mol/L): 4.59
- GI50 (cell line MDAMB415, value is the negative log10 of mol/L): 4.59
- GI50 (cell line MDAMB436, value is the negative log10 of mol/L): 4.30
- GI50 (cell line MDAMB453, value is the negative log10 of mol/L): 4.32
- GI50 (cell line MDAMB468, censored GI50 values, value is the negative log10 of mol/L): 4.44
- GI50 (cell line MDAMB468, value is the negative log10 of mol/L): 4.44
- GI50 (cell line SKBR3, value is the negative log10 of mol/L): 4.32
- GI50 (cell line SUM52PE, censored GI50 values, value is the negative log10 of mol/L): 4.73
- GI50 (cell line SUM52PE, value is the negative log10 of mol/L): 4.73
- GI50 (cell line SUM149PT, censored GI50 values, value is the negative log10 of mol/L): 4.56
- GI50 (cell line SUM149PT, value is the negative log10 of mol/L): 4.56
- GI50 (cell line SUM159PT, censored GI50 values, value is the negative log10 of mol/L): 4.78
- GI50 (cell line SUM159PT, value is the negative log10 of mol/L): 4.78
- GI50 (cell line SUM185PE, censored GI50 values, value is the negative log10 of mol/L): 4.54
- GI50 (cell line SUM185PE, value is the negative log10 of mol/L): 4.54
- GI50 (cell line SUM225CWN, censored GI50 values, value is the negative log10 of mol/L): 4.69
- GI50 (cell line SUM225CWN, value is the negative log10 of mol/L): 4.69
- GI50 (cell line SUM1315MO2, censored GI50 values, value is the negative log10 of mol/L): 4.67
- GI50 (cell line SUM1315MO, value is the negative log10 of mol/L): 4.67
- GI50 (cell line T47D, censored GI50 values, value is the negative log10 of mol/L): 4.51
- GI50 (cell line T47D, value is the negative log10 of mol/L): 4.51
- GI50 (cell line UACC812, censored GI50 values, value is the negative log10 of mol/L): 4.45
- GI50 (cell line UACC812, value is the negative log10 of mol/L): 4.45
- GI50 (cell line UACC893, censored GI50 values, value is the negative log10 of mol/L): 4.69
- GI50 (cell line UACC893, value is the negative log10 of mol/L): 4.69
- GI50 (cell line ZR75B, censored GI50 values, value is the negative log10 of mol/L): 5.69
- GI50 (cell line ZR75B, value is the negative log10 of mol/L): 5.69
- GI50 (cell line ZR751, censored GI50 values, value is the negative log10 of mol/L): 5.51
- GI50 (cell line ZR751, value is the negative log10 of mol/L): 5.51

Structure (SMILES): Cn1cnc2c(F)c(Nc3ccc(Br)cc3Cl)c(C(=O)NOCCO)cc21 [AZD6244]
- GI50 (Homo sapiens, BT-20, cell line BT20, read-out: GI50 (converted)): 50.1 µM
- GI50 (Homo sapiens, BT-474, cell line BT474, read-out: GI50 (converted)): 50.1 µM
- GI50 (Homo sapiens, BT-483, cell line BT483, read-out: GI50 (converted)): 50.1 µM
- GI50 (Homo sapiens, CAMA-1, cell line CAMA1, read-out: GI50 (converted)): 50.1 µM
- GI50 (Homo sapiens, HCC38, cell line HCC38, read-out: GI50 (converted)): 50.1 µM
- GI50 (Homo sapiens, HCC1395, HCC1395 cell line, censored GI50 values, read-out: GI50 (converted)): 28.8 µM
- GI50 (Homo sapiens, HCC1395, cell line HCC1395, read-out: GI50 (converted)): 28.8 µM
- GI50 (Homo sapiens, HCC1419, HCC1419 cell line, censored GI50 values, read-out: GI50 (converted)): 17.8 µM
- GI50 (Homo sapiens, HCC1419, cell line HCC1419, read-out: GI50 (converted)): 17.8 µM
- GI50 (Homo sapiens, HCC1428, cell line HCC1428, read-out: GI50 (converted)): 50.1 µM
- GI50 (Homo sapiens, HCC1500, cell line HCC1500, read-out: GI50 (converted)): 50.1 µM
- GI50 (Homo sapiens, HCC1806, cell line HCC1806, read-out: GI50 (converted)): 50.1 µM
- GI50 (Homo sapiens, HCC1937, cell line HCC1937, read-out: GI50 (converted)): 50.1 µM
- GI50 (Homo sapiens, HCC1954, HCC1954 cell line, censored GI50 values, read-out: GI50 (converted)): 1.45 µM
- GI50 (Homo sapiens, HCC1954, cell line HCC1954, read-out: GI50 (converted)): 1.45 µM
- GI50 (Homo sapiens, MCF7, cell line MCF7, read-out: GI50 (converted)): 50.1 µM
- GI50 (Homo sapiens, MDA-MB-134-VI, MDAMB134VI cell line, censored GI50 values, read-out: GI50 (converted)): 1.17 µM
- GI50 (Homo sapiens, MDA-MB-175-VII, MDAMB175VII cell line, censored GI50 values, read-out: GI50 (converted)): 2.57 µM
- GI50 (Homo sapiens, MDA-MB-231, cell line MDAMB231, read-out: GI50 (converted)): 50.1 µM
- GI50 (Homo sapiens, MDA-MB-361, cell line MDAMB361, read-out: GI50 (converted)): 50.1 µM
- GI50 (Homo sapiens, MDA-MB-415, cell line MDAMB415, read-out: GI50 (converted)): 50.1 µM
- GI50 (Homo sapiens, MDA-MB-436, cell line MDAMB436, read-out: GI50 (converted)): 50.1 µM
- GI50 (Homo sapiens, MDA-MB-453, cell line MDAMB453, read-out: GI50 (converted)): 50.1 µM
- GI50 (Homo sapiens, MDA-MB-468, cell line MDAMB468, read-out: GI50 (converted)): 50.1 µM
- GI50 (Homo sapiens, SK-BR-3, cell line SKBR3, read-out: GI50 (converted)): 50.1 µM
- GI50 (Homo sapiens, SUM52PE, SUM52PE cell line, censored GI50 values, read-out: GI50 (converted)): 9.77 µM
- GI50 (Homo sapiens, SUM52PE, cell line SUM52PE, read-out: GI50 (converted)): 9.77 µM
- GI50 (Homo sapiens, SUM149PT, SUM149PT cell line, censored GI50 values, read-out: GI50 (converted)): 0.525 µM
- GI50 (Homo sapiens, SUM149PT, cell line SUM149PT, read-out: GI50 (converted)): 0.525 µM
- GI50 (Homo sapiens, SUM185PE, cell line SUM185PE, read-out: GI50 (converted)): 50.1 µM
- GI50 (Homo sapiens, SUM1315MO2, SUM1315MO2 cell line, censored GI50 values, read-out: GI50 (converted)): 7.59 µM
- GI50 (Homo sapiens, T47D, cell line T47D, read-out: GI50 (converted)): 50.1 µM
- GI50 (Homo sapiens, ZR-75-1, ZR751 cell line, censored GI50 values, read-out: GI50 (converted)): 6.17 µM
- GI50 (Homo sapiens, ZR-75-1, cell line ZR751, read-out: GI50 (converted)): 6.17 µM
- GI50 (Homo sapiens, ZR-75B, cell line ZR75B, read-out: GI50 (converted)): 50.1 µM
- GI50 (Homo sapiens, cell line HCC2185, read-out: GI50 (converted)): 50.1 µM
- GI50 (Homo sapiens, cell line MDAMB134V, read-out: GI50 (converted)): 1.17 µM
- GI50 (Homo sapiens, cell line MDAMB175V, read-out: GI50 (converted)): 2.57 µM
- GI50 (Homo sapiens, cell line SUM1315MO, read-out: GI50 (converted)): 7.59 µM
